Entries after “also recorded” stand apart in the source; their conditions may differ.

This experiment concerns HEK293-hL1 cells. As to the kind of experiment: Haptotactic cell migration assay in Transwell chambers, HEK293-hL1 cells. The conditions noted are these: fibronectin, 24 h after transient transfection (FIG. 11). The format is cell-based, human. The method, then:
(C) Inhibition of haptotactic cell migration in the absence or presence of the indicated mAbs to integrins at a final concentration of 10 μg/ml. FN at 10 μg/ml or BSA for control were coated onto the backside of Transwell chambers. Cells were seeded into the top chamber and allowed to transmigrate for 16 hr at 37° C. The antibody was present during the assay time. Each determination was done in quadruplicate and transmigrated cells were stained from the back of the filter. The dye was eluted from the filter and measured at 595 nm. The amount of dye is proportional to the number of transmigrated cells. Values for the migration on BSA were below 0.25 O.D. units for each cell type.
The haptotactic cell migration assay on fibronectin, laminin or BSA was performed in Transwell chambers (Costar, 6.5 mm diameter, 5 um pore size) and was described in detail elsewhere (Mechtersheimer et al., supra). Transmigrated cells were quantified by staining of the transwell membranes with cristalviolet solution as described (Mechtersheimer at al., supra). The eluted dye was measured at 595 nm in an ELISA reader.

In the case of `COc1cccc(-c2cc(=O)c3ccccc3o2)c1N` [PD59098], the “suppression of enhanced (L1-dependent) migration of HEK-293-hL1 wild type cells” value is given as “same effect; also recorded: could block the L1-dependent migration”.

(Values after US8003599B2, “Inhibitors of L1 and ADAM10 for the treatment of carcinomas” (Deutsches Krebsforschungszentrum, priority 2004, dated 2011).)
